Laboratory results as given in patent publication EP2934149B1, “C6-AZASPIRO IMINOTHIADIAZINE DIOXIDES AS BACE INHIBITORS” (Merck Sharp & Dohme Corp., priority 2012, dated 2014).
pKi: −log10 of the molar value.

Experiments:
[1] = molecular target: soluble human BACE1 catalytic domain (Homo sapiens, UniProt P56817); experiment: BACE1 HTRF FRET Assay; type: biochemical; conditions: Ki calculated from IC50 using the Cheng-Prusoff equation; QSY7-APPswe-Eu substrate 200 nM final, pH 5.0, 30° C
Procedure: A homogeneous time-resolved FRET assay can be used to determine IC50 values for inhibitors of the soluble human BACE1 catalytic domain. […] This substrate contains an N-terminal QSY7 moiety that serves as a quencher of the C-terminal Europium fluorophore (620nm Em). […] Inhibition of BACE1 cleavage of the QSY7-APP^swe-Eu substrate by inhibitors is manifested as a suppression of 620 nm fluorescence. […] The reactions are incubated at 30° C for 1.5 hours. The 620nm fluorescence is then read on a Rubystar HTRF plate reader (BMG Labtechnologies) using a 50 millisecond delay followed by a 400 millisecond acquisition time window. Inhibitor IC50 values are derived from non-linear regression analysis of concentration response curves.

[2] = molecular target: T1, purified human autoBACE-2 (Homo sapiens, UniProt Q9Y5Z0); experiment: BACE-2 Assay (BACE-HTRF assay); type: biochemical; conditions: Ki calculated from IC50 using the Cheng-Prusoff equation; QSY7-EISEVNLDAEFC-Eu-amide substrate 200 nM final, pH 5.0, 30°C; read-out: BACE2 Ki
T1 sequence (Q9Y5Z0 63-473 limits assumed): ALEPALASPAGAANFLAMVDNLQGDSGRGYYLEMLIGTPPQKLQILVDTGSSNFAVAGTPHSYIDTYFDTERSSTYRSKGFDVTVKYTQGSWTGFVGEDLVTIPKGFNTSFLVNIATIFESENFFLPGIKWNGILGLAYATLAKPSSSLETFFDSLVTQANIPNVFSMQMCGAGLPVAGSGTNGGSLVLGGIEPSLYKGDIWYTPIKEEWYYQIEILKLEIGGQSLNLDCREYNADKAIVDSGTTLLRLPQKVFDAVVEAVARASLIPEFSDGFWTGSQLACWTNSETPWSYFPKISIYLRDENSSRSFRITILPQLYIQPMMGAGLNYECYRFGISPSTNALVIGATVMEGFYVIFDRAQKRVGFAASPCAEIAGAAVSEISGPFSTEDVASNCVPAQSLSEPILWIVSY
Procedure: Inhibitor IC50's at purified human autoBACE-2 are determined in a time-resolved endpoint proteolysis assay that measures hydrolysis of the QSY7-[…]-Eu-amide FRET peptide substrate (BACE-HTRF assay). […] Inhibitor compounds, prepared at 3x the desired final concentration in 1x BACE assay buffer (20 mM sodium acetate pH 5.0,10% glycerol, 0.1% Brij-35) supplemented with 7.5% DMSO are pre-incubated with an equal volume of autoBACE-2 enzyme diluted in 1x BACE assay buffer (final enzyme concentration 1 nM) in black 384-well NUNC plates for 30 minutes at 30°C. […] DMSO is present at 5% final concentration in the assay. Following laser excitation of sample wells at 320 nm, the fluorescence signal at 620 nm is collected for 400 ms following a 50 µs delay on a RUBYstar HTRF plate reader (BMG Labtechnologies). Raw RFU data is normalized to maximum (1.0 nM BACE/DMSO) and minimum (no enzyme/DMSO) RFU values. […] The Ki values are calculated from the IC50 using the Cheng-Prusoff equation.

soluble human BACE1 catalytic domain, sequence (P56817 75-416 limits assumed): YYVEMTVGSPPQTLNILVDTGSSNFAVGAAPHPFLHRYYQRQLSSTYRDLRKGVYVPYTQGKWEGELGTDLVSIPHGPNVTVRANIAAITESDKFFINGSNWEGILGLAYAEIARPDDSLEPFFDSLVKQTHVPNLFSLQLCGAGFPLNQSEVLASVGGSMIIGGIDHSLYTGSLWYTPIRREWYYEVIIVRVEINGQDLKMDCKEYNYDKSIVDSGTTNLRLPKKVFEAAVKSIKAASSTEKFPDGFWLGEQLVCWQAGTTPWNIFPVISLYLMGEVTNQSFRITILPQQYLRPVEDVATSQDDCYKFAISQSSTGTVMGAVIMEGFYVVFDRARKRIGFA

SMILES	pKi [1]	pKi [2]
CCS(=O)(=O)N1CC[C@]2(C1)[C@@](C)(c1cc(NC(=O)c3ccc(OC)cn3)ccc1F)NC(=N)N(C)S2(=O)=O [Example 69]	7.48	6.80
COc1ccc(C(=O)Nc2ccc(F)c([C@@]3(C)NC(=N)N(C)S(=O)(=O)[C@]34CCN(S(=O)(=O)CC(C)C)C4)c2)nc1 [Example 70]	7.43	7.00
COc1ccc(C(=O)Nc2ccc(F)c([C@@]3(C)NC(=N)N(C)S(=O)(=O)[C@]34CCN(S(=O)(=O)c3ccc(F)cc3)C4)c2)nc1 [Example 71]	7.62	7.52
COc1ccc(C(=O)Nc2ccc(F)c([C@@]3(C)NC(=N)N(C)S(=O)(=O)[C@]34CCN(S(=O)(=O)CC(F)(F)F)C4)c2)nc1 [Example 72]	7.55	7.00
CN1C(=N)N[C@](C)(c2cc(NC(=O)c3ccc(F)cn3)ccc2F)[C@]2(CCN(S(=O)(=O)c3ccc(F)cc3)C2)S1(=O)=O [Example 73]	8.52	8.00
CN1C(=N)N[C@](C)(c2cc(NC(=O)c3ccc(F)cn3)ccc2F)[C@]2(CCN(S(=O)(=O)CC(F)(F)F)C2)S1(=O)=O [Example 74]	8.70	8.40
CN1C(=N)N[C@](C)(c2cc(NC(=O)c3ccc(F)cn3)ccc2F)[C@]2(CCN(S(C)(=O)=O)C2)S1(=O)=O [Example 75]	8.40	8.15
CCS(=O)(=O)N1CC[C@@]2(C1)[C@@](C)(c1cc(NC(=O)c3ccc(F)cn3)ccc1F)NC(=N)N(C)S2(=O)=O [Example 76]	8.70	8.40
CC(C)CS(=O)(=O)N1CC[C@@]2(C1)[C@@](C)(c1cc(NC(=O)c3ccc(F)cn3)ccc1F)NC(=N)N(C)S2(=O)=O [Example 77]	8.70	8.52
CN1C(=N)N[C@](C)(c2cc(NC(=O)c3ccc(F)cn3)ccc2F)[C@]2(CCN(S(=O)(=O)c3ccccc3)C2)S1(=O)=O [Example 78]	8.70	8.15
CN1C(=N)N[C@](C)(c2cc(NC(=O)c3ccc(F)cn3)ccc2F)[C@]2(CCN(S(=O)(=O)C3CC3)C2)S1(=O)=O [Example 79]	9.00	8.70
CN1C(=N)N[C@](C)(c2cc(NC(=O)c3ccc(F)cn3)ccc2F)[C@]2(CCN(S(=O)(=O)Cc3cccnc3)C2)S1(=O)=O [Example 80]	8.70	8.30
CN1C(=N)N[C@](C)(c2cc(NC(=O)c3ccc(F)cn3)ccc2F)[C@]2(CCN(S(=O)(=O)c3cn(C)cn3)C2)S1(=O)=O [Example 81]	8.10	7.62
CN1C(=N)N[C@](C)(c2cc(NC(=O)c3ccc(F)cn3)ccc2F)[C@]2(CCN(S(=O)(=O)c3cn[nH]c3)C2)S1(=O)=O [Example 83]	8.30	7.96
CN1C(=N)N[C@](C)(c2cc(NC(=O)c3ccc(F)cn3)ccc2F)[C@]2(CCN(S(=O)(=O)C3CCCC3)C2)S1(=O)=O [Example 84]	8.70	8.70
CN1C(=N)N[C@](C)(c2cc(NC(=O)c3ccc(F)cn3)ccc2F)[C@@]2(CCN(S(=O)(=O)C3CCCC3)C2)S1(=O)=O [Example 85]	7.39	7.43
CN1C(=N)N[C@](C)(c2cc(NC(=O)c3ccc(F)cn3)ccc2F)[C@@]2(CCN(S(C)(=O)=O)C2)S1(=O)=O [Example 88]	7.47	7.27
CCS(=O)(=O)N1CC[C@]2(C1)[C@@](C)(c1cc(NC(=O)c3ccc(F)cn3)ccc1F)NC(=N)N(C)S2(=O)=O [Example 89]	7.35	7.39
CC(C)CS(=O)(=O)N1CC[C@]2(C1)[C@@](C)(c1cc(NC(=O)c3ccc(F)cn3)ccc1F)NC(=N)N(C)S2(=O)=O [Example 90]	7.32	7.54
CN1C(=N)N[C@](C)(c2cc(NC(=O)c3ccc(F)cn3)ccc2F)[C@@]2(CCN(S(=O)(=O)C3CC3)C2)S1(=O)=O [Example 92]	7.39	7.54
CN1C(=N)N[C@](C)(c2cc(NC(=O)c3ccc(F)cn3)ccc2F)[C@@]2(CCN(S(=O)(=O)Cc3cccnc3)C2)S1(=O)=O [Example 93]	7.55	7.70
CN1C(=N)N[C@](C)(c2cc(NC(=O)c3ccc(F)cn3)ccc2F)[C@@]2(CCN(S(=O)(=O)c3cn(C)cn3)C2)S1(=O)=O [Example 94]	7.43	7.72
COCC(=O)Nc1ccc(F)c([C@@]2(C)NC(=N)N(C)S(=O)(=O)[C@@]23CCNC3)c1 [Example 97]	5.98	6.11
